# Experimental data taken from ChEMBL document CHEMBL5344462, “Novel-Type GABAB PAMs: Structure-Activity Relationship in Light of the Protein Structure” (ACS Med Chem Lett, 2024).
# Assay: Positive allosteric modulator activity at rat cortical membrane GABA-B receptor incubated for 60 min by [35S]GTPgammaS binding assay
# Assay type: cell membranes, Cortex
row,SMILES,pEC50
1,Cc1ncc(-c2ccc(C(F)(F)F)cc2)c(N[C@@H]2C[C@H]3CC[C@@H]2C3)n1,6.13
2,COc1nn(-c2ccc(F)c(NC(C)=O)c2)c(=O)n(Cc2ccc(Cl)c(F)c2)c1=O,6.89
3,Cc1nc2ccc(I)cc2c(N2CCCCC2)c1S(C)(=O)=O,5.83
4,CCOC(=O)C1CCCN(c2cc(C)nc3cc(-c4ccc(Cl)cc4)nn23)C1 (racemic),5.85
5,CC(C)(C)c1cc(C(C)(C)C)c2c(c1)C(O)(C(F)(F)F)C(=O)O2 (racemic),6.78
6,Cc1nc(N2CCCCC2CCO)c2sc(-c3ccc(Cl)cc3)cc2n1 (racemic),6.59
7,Cc1nc2cc(-c3ccc(Cl)cc3)nn2c(N2CCOCC2CCO)c1C#N (racemic),5.78
8,Cc1nc(N2CCCCC2CCO)c2nc(-c3ccc(Cl)cc3)cn2n1 (racemic),6.24
9,CCOC(=O)C1=C(N2CCOCC2CCO)N2N=C(c3ccc(Cl)cc3)CC2N=C1C (racemic),6.09
10,COc1c(C)nc2cc(-c3ccc(Cl)cc3)nn2c1N1CCCCC1CCO (racemic),7.05
11,Cc1cc(N2CCCCC2CCO)c2sc(-c3ccc(Cl)cc3)cc2n1 (racemic),6.22
12,Cc1cc(N2CCCCC2CCO)n2nc(-c3ccc(C#N)cc3)cc2n1 (racemic),5.29
13,Cc1cc(N2CCCCC2CCO)n2nc(-c3ccccc3)cc2n1 (racemic),5.91
14,COc1c(C)nc2cc(-c3ccc(Cl)cc3)nn2c1N1CCCC(C(=O)O)C1 (racemic),5.69
15,Cc1nc(N2CCCCC2CCO)n2nc(-c3ccc(Cl)cc3)cc2n1 (racemic),6.63
16,Cc1cc(N2CCOCC2CCO)n2nc(-c3ccc(Cl)cc3)cc2n1 (racemic),5.61
17,Cc1cc(N2CCCCC2CCO)n2nc(-c3cccc(Cl)c3)cc2n1 (racemic),5.3
18,COc1ccc(-c2cc3nc(C)cc(N4CCCCC4CCO)n3n2)cc1 (racemic),5.25
19,Cc1cc(N2CCCCC2CCO)n2nc(-c3ccc(F)cc3)cc2n1 (racemic),5.93
20,Cc1cc(N2CCCCC2CCO)c2cc(-c3ccc(Cl)cc3)oc2n1 (racemic),5.92
21,Cc1cc(N2CCCCC2CCO)n2nc(-c3ccc(Cl)cc3)cc2n1 (racemic),6.21
22,Cc1cc(N2CCCCC2CCO)n2nc(Cc3ccccc3)cc2n1 (racemic),5.24

# More lines, now with the values ahead:
row,pEC50,SMILES
1,7.75,CSc1c(C)nc2cc(-c3ccc(Cl)cc3)nn2c1-c1cccc(NC(C)=O)c1
2,7.15,CSc1c(C)nc2cc(-c3ccc(Cl)cc3)nn2c1N1CCC[C@@H](C(=O)O)C1
3,6.42,CC(=O)Nc1cccc(-c2c(S(C)(=O)=O)c(C)nc3cc(-c4ccc(Cl)cc4)nn23)c1
4,6.19,CC(=O)Nc1cccc(-c2c([S+](C)[O-])c(C)nc3cc(-c4ccc(Cl)cc4)nn23)c1 (stereo not given)
5,6.75,CSc1c(C)nc2cc(-c3ccc(Cl)cc3)nn2c1N1CCC[C@H](C(=O)O)C1
6,6.6,CC(=O)Nc1cccc(-c2cc(C)nc3cc(-c4ccc(Cl)cc4)nn23)c1
7,6.17,CC(=O)Nc1ccccc1-c1cc(C)nc2cc(-c3ccc(Cl)cc3)nn12
8,5.4,Cc1cc(NC2CCCNC2=O)n2nc(-c3ccc(Cl)cc3)cc2n1 (racemic)
9,6.55,Cc1cc(N2CCCCC2C(N)=O)n2nc(-c3ccc(Cl)cc3)cc2n1 (racemic)
10,5.97,Cc1cc(N2CCCCC2C(=O)O)n2nc(-c3ccc(Cl)cc3)cc2n1 (racemic)
11,6.93,CSc1c(C)nc2cc(-c3ccc(Cl)cc3)nn2c1N1CCCC(C(=O)O)C1 (racemic)
12,5.32,Cc1cc(N2CCCC(C(=O)O)C2)n2nc(-c3ccc(Cl)cc3)cc2n1 (racemic)
13,5.89,Cc1cc(NC2CCCCNC2=O)n2nc(-c3ccc(Cl)cc3)cc2n1 (racemic)
